Results: patent US6710090B2, “Inhibitory or blocking agents of molecular generating and/or inducing functions” (priority 1994, dated 2004)

Legend:
[1] = biological target: T1, Recombinant Taq DNA Polymerase (Thermus aquaticus, UniProt P19821); assay: PCR with polymerase enzymes treated with Yoshixol; type: biochemical
T1 construct: purchased TaKaRa Shuzo Co., Otsu city R001A
Description: Effect of Yoshixol on PCR was investigated by DNA template which was extracted from snake (blue-green snake, captured at Matsumoto city, Nagano). The new synthesized dimer of (SEQ ID NO: 2) (5′>CTTCGGGCTTCGGG<3′) with 7 base-pair alignment (CTTCGGG) above-mentioned was used as a primer. PCR reaction was done by use of DNA thermal cycler (PJ-2000) made in PERKIN ELMER CETUS company. The following six combinations were prepared for the test samples. Those are two kinds of samples which consist of 5 μl of primer (100 pico mole/μl) with 5 μl of Yoshixol (P+) and without Yoshixol (P−). In addition, two kinds of samples which consist of 5 μl. of snake DNA (500 ng/μl) with 5 μl of Yoshixol (D+) and without Yoshixol (D−). And, additional two kinds of samples which consist of 1 μl of polymerase enzymes (Recombinant Taq DNA Polymerase, No. R001A, TaKaRa Shuzo Co., Otsu city: 5 unit/pd) with 1 μl of Yoshixol (Pm+) and without Yoshixol (Pm−). After each sample was placed for 10 minutes at room temperature, each sample was diluted in distilled water. And, it is adjusted in a primer solution of 10 picomole/μl, DNA solution of 50 ng/μl and a polymerase enzymes solution of 0.5 unit/μl. Then, the following combinations were prepared. […] In each combination, amount of cDNA synthesis was amplified by a PCR method and was measured. […]

thrombin = thrombin (Homo sapiens, UniProt P00734); assay: Thrombin treated with Yoshixol added in fibrinogen, thromboelastgram; type: biochemical; set-up: thrombin (Behlinger Manheim-Yamanouchi Co.) was investigated by electrophoresis; purchased Behlinger Manheim-Yamanouchi Co
Description: Effect of Yoshixol (4 μl) on human blood coagulation and fibrin formation (thrombin was added to fibrinogen) were investigated by thromboelastgram (Hellige GMBH, West Germany). Also, a magnitude of fibrin network which is formed at human blood coagulation was investigated by a scanning electron microscopy. Coagulation of human blood without treatment with Yoshixol was started within 1-2 min so that maximum level of coagulation occurred approximately within 15 min, followed by gradual decrease due to activation of fibrinolytic system. Immediately after thrombin is added on fibrinogen, viscosity of the sample started to increase, reached to a maximum level within 5-6 minutes. This maximum level was maintained for periods of 6 hours which was observed (referred FIG. 3a). However, when Yoshixol (4 μl) was added in 0.4 ml of whole blood or fibrinogen (160 mg/dl), onset time of blood coagulation and fibrin formation was delayed to 4-5 minutes and maximum aggregation time was occurred within 6-8 minutes. Maximum level of coagulation after the treatment was inhibited by 90% of control which level was maintained over 6 hours of investigation (referred FIG. 3b).

HeLa cells = assay: Anti-cancer effect, cultured HeLa cells; type: cell-based; conditions: compared with keratinocytes treated with Yoshixol
[2] = system: synthesized dimers SEQ ID NO: 1 and SEQ ID NO: 2; assay: Molecular weight of new synthesized dimers with seven base pair, electrophoresis; type: biochemical; conditions: 2 μl dimer solution with 2 μl of Yoshixol, 20% gel electrophoresis
Description: DNA or RNA synthesis device (392-25 type, Perkin-Elmer Co.) was used and 7 base alignment (CTTCGGA) and (CTTCGGG) new synthesis dimer (SEQ ID NO: 1) (5′>CTTCGGACTTCGGA<3′) and (SEQ ID NO: 2) (5′>CTTCGGGCTTCGGG<3′) were synthesized. Then, an effect of Yoshixol on a change in molecular weight of the dimer was investigated. This pellet was dissolved on 50 μl of tris EDTA, and OD260 was measurement by 100 times attenuation so that concentration was turned into equality (5 ng/μl) by tris EDTA and distilled water. And, 4 μl of an adjusted synthesis dimer was labeled at 5′-terminal end of the dimer with 4 μl of ATP which was labeled by P32. In addition, after processing the dimer with 1 μl of polynucleokinase (TaKaRa, Tokyo) for 30 minutes by 37° C., the solution was heated at 70° C. for 5 minutes. Afterward, 65 μl of tris EDTA, 1 μl of glycogen and 190 μl of chilled ethanol were added and were mixed. And, it was centrifuged over 10 minute by 16,000 cpm. After taking the supernatant out, the pellet was made dry. Again, it was dissolved by 50 μl of tris EDTA and, 1 μl of the solution with radioactivity was mixed with urea (15 g), acrylamide (5.7 g), bisacrylamide (0.3 g), tris boric acid EDTA (3 ml), 10% ammoniumpersulfate (0.1 ml) and N, N, N, N-tetramethyldiamine (15 μl) to distilled water, so that the volume was made to 30 ml in total. […]

Compound: C=C1CC(C)(C)C=CC1=O [Yoshixol, 4,4-dimethyl-6-methylene-2-cyclohexen-1-one]
- PCR bounds, group P−, D−, Pm+ ([1]; 1 μl polymerase with 1 μl of Yoshixol, untreated 4 bounds between 0.5 and 1.2 kb): only one bound at lowest molecular weight within 4 bounds was appeared
- PCR bounds, group P−, D−, Pm+A ([1]; concentration of Yoshixol for the polymerase increased to 100 times): any kind of bounds did not observe
- aggregation reaction on thromboelastgram (thrombin): any of aggregation reaction was not be found
- structure between cells and cellular aspect (HeLa cells): observations similar to the above were found
- change in molecular weight of the synthesized dimers versus without treatment [2]: did not differ
